Data on 16 compounds can be found in PubChem BioAssay AID328 (DTP/NCI, 2004).

For this experiment, the system named is BDF1 mice, P388 leukemia ip, median survival T/C. Kind of experiment: NCI In Vivo Anticancer Drug Screen. Data for tumor model P388 Leukemia (intraperitoneal) in B6D2F1 (BDF1) mice. The settings on record: endpoint: median survival time, higher = longer survival. Put shortly: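 Vehicle-dosed animals serve as the reference; survival of compound-dosed, tumour-implanted mice is divided by it.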

The mark [1] stands for this setting: dose: 100.0 mg/kg/injection, schedule: Q01DX009 (ip), vehicle: Klucel (hydroxypropylcellulose) (HPC).
[2] abbreviates: dose: 100.0 mg/kg/injection, schedule: Q04DX003 (ip), vehicle: Klucel (hydroxypropylcellulose) (HPC).
The mark [3] stands for this setting: dose: 200.0 mg/kg/injection, schedule: Q04DX003 (ip), vehicle: Klucel (hydroxypropylcellulose) (HPC).
Setting [4] is: dose: 400.0 mg/kg/injection, schedule: Q01DX009 (ip), vehicle: Klucel (hydroxypropylcellulose) (HPC).
[5] abbreviates: dose: 400.0 mg/kg/injection, schedule: Q04DX003 (ip), vehicle: Klucel (hydroxypropylcellulose) (HPC).
Where [6] appears, read: dose: 6.25 mg/kg/injection, schedule: Q01DX009 (ip), vehicle: saline.
Where [7] appears, read: dose: 12.5 mg/kg/injection, schedule: Q04DX003 (ip), vehicle: saline with Tween-80.
Setting [8] is: dose: 25.0 mg/kg/injection, schedule: Q01DX009 (ip), vehicle: saline with Tween-80.
The mark [9] stands for this setting: dose: 25.0 mg/kg/injection, schedule: Q04DX003 (ip), vehicle: saline with Tween-80.
[10] abbreviates: dose: 50.0 mg/kg/injection, schedule: Q01DX009 (ip), vehicle: saline with Tween-80.
The mark [11] stands for this setting: dose: 50.0 mg/kg/injection, schedule: Q04DX003 (ip), vehicle: saline with Tween-80.
[12] abbreviates: dose: 100.0 mg/kg/injection, schedule: Q04DX003 (ip), vehicle: saline with Tween-80.
Where [13] appears, read: dose: 50.0 mg/kg/injection, schedule: Q01DX009 (ip), vehicle: Klucel (hydroxypropylcellulose) (HPC).

“And” between values parts separate entries of the source, which are not always exact repeats. Identical values can stand only once. Inconclusive results and toxic doses are left out.

As to `O=[N+]([O-])c1cc2c3ccccc3ccc2c2ccccc12`, the T/C runs as follows: under setting [1], 104 % of control; under setting [2], 100 % of control; (dose: 200.0 mg/kg/injection, schedule: Q01DX009 (ip), vehicle: Klucel (hydroxypropylcellulose) (HPC)) 100 % of control; under setting [3], 100 % of control; under setting [4], 104 % of control; under setting [5], 100 % of control.

Regarding `O/N=C(\C[n+]1ccccc1)c1ccc2ccccc2c1`, the T/C was 113 % of control (dose: 1.56 mg/kg/injection, schedule: Q01DX009 (ip), vehicle: Klucel (hydroxypropylcellulose) (HPC)); 120 % of control (dose: 3.12 mg/kg/injection, schedule: Q01DX009 (ip), vehicle: Klucel (hydroxypropylcellulose) (HPC)); 107 % of control (dose: 3.12 mg/kg/injection, schedule: Q01DX009 (ip), vehicle: saline); 122 % of control (dose: 6.25 mg/kg/injection, schedule: Q01DX009 (ip), vehicle: Klucel (hydroxypropylcellulose) (HPC)); 120 % of control under setting [6]; 106 % of control (dose: 50.0 mg/kg/injection, schedule: Q01DX009 (ip), vehicle: saline).

On to `Cc1[nH]c(=O)[nH]c(=O)c1NC(=O)c1ccccc1[N+](=O)[O-]`, for which the T/C (dose: 12.5 mg/kg/injection, schedule: Q01DX009 (ip), vehicle: saline with Tween-80) is 95 % of control; the T/C under setting [7] is 92 % of control; the T/C under setting [8] was 104 % of control; the T/C under setting [9] is 92 % of control; the T/C under setting [10] was 87 % of control; the T/C under setting [11] is 92 % of control.

For the compound `O=CC12Cc3ccccc3C1CCC1(C2)OCCO1` (configuration not stated), the T/C is 90 % of control (dose: 100.0 mg/kg/injection, schedule: Q04DX003 (ip), vehicle: saline sonified); 110 % of control (dose: 200.0 mg/kg/injection, schedule: Q04DX003 (ip), vehicle: saline sonified); 110 % of control (dose: 400.0 mg/kg/injection, schedule: Q04DX003 (ip), vehicle: saline sonified).

Regarding `Cn1c2ccccc2c2c3c(ccc21)C(=O)C=CC3=O`, the T/C is 113 % of control under setting [12]; 102 % of control (dose: 200.0 mg/kg/injection, schedule: Q04DX003 (ip), vehicle: saline with Tween-80); 121 % of control (dose: 400.0 mg/kg/injection, schedule: Q04DX003 (ip), vehicle: saline with Tween-80).

`CCCCCCCCCCCCSC(=N)N`: the T/C was 104 % of control (dose: 0.39 mg/kg/injection, schedule: Q04DX003 (ip), vehicle: saline); 104 % of control (dose: 0.78 mg/kg/injection, schedule: Q04DX003 (ip), vehicle: saline); 100 % of control (dose: 3.12 mg/kg/injection, schedule: Q04DX003 (ip), vehicle: saline); 109 % of control under setting [6]; 100 % of control (dose: 12.5 mg/kg/injection, schedule: Q01DX009 (ip), vehicle: saline); 100 % of control (dose: 25.0 mg/kg/injection, schedule: Q01DX009 (ip), vehicle: saline).

In the case of `COC(=O)c1cc(=O)nc(N/N=C/c2ccc3c(c2)OCO3)s1`, the T/C was 92 % of control (dose: 50.0 mg/kg/injection, schedule: Q01DX005 (ip), vehicle: saline with Tween-80) and 96 % of control (dose: 200.0 mg/kg/injection, schedule: Q01DX005 (ip), vehicle: saline with Tween-80).

Take `O=C(/C(=N/Nc1ccccc1)c1ccccc1)c1ccccc1`: the T/C reads like this: under setting [2], 104 % of control; under setting [3], 100 % of control; under setting [5], 113 % of control.

On to `COc1cc(OC)c(C(=O)CCc2ccccc2)c(O)c1Cc1ccccc1O`, for which the T/C by setting is: (dose: 0.5 mg/kg/injection, schedule: Q01DX009 (ip), vehicle: saline) 106 % of control; (dose: 2.0 mg/kg/injection, schedule: Q01DX009 (ip), vehicle: saline) 113 % of control; (dose: 4.0 mg/kg/injection, schedule: Q01DX009 (ip), vehicle: saline with Tween-80) 120 % of control; (dose: 4.0 mg/kg/injection, schedule: Q01DX009 (ip), vehicle: saline) 103 % of control; (dose: 5.9 mg/kg/injection, schedule: Q01DX009 (ip), vehicle: saline with Tween-80) 103 % of control; (dose: 13.0 mg/kg/injection, schedule: Q01DX009 (ip), vehicle: saline with Tween-80) 103 % of control.

Consider `CC1OC(OC2CCCc3c(O)c4c(c(O)c32)C(=O)c2ccccc2C4=O)CC(N)C1O` (configuration not stated), for which the T/C is 110 % of control (dose: 0.25 mg/kg/injection, schedule: Q01DX009 (ip), vehicle: water); 105 % of control (dose: 0.5 mg/kg/injection, schedule: Q01DX009 (ip), vehicle: water); 98 % of control (dose: 1.0 mg/kg/injection, schedule: Q01DX009 (ip), vehicle: water); 110 % of control and 115 % of control (dose: 2.0 mg/kg/injection, schedule: Q01DX009 (ip), vehicle: water); 108 % of control and 113 % of control (dose: 4.0 mg/kg/injection, schedule: Q01DX009 (ip), vehicle: water); 108 % of control (dose: 8.0 mg/kg/injection, schedule: Q01DX009 (ip), vehicle: water). For the same compound, the T/C (dose: 16.0 mg/kg/injection, schedule: Q01DX009 (ip), vehicle: water) is 105 % of control.

Consider `Cc1ccc(C(=O)[O][Hg][CH2]C2COC([CH2][Hg][O]C(=O)c3ccc(C)cc3)CO2)cc1` (configuration not stated), for which the T/C is 90 % of control (dose: 2.25 mg/kg/injection, schedule: Q01DX009 (ip), vehicle: saline with Tween-80); 110 % of control (dose: 6.25 mg/kg/injection, schedule: Q01DX009 (ip), vehicle: saline sonified); 107 % of control (dose: 6.25 mg/kg/injection, schedule: Q04DX003 (ip), vehicle: saline with Tween-80); 107 % of control under setting [7]; 109 % of control (dose: 25.0 mg/kg/injection, schedule: Q01DX009 (ip), vehicle: Klucel (hydroxypropylcellulose) (HPC)); 150 % of control (dose: 25.0 mg/kg/injection, schedule: Q01DX009 (ip), vehicle: saline sonified). Besides, the T/C under setting [9] is 103 % of control; the T/C under setting [13] is 109 % of control; the T/C under setting [1] was 86 % of control; the T/C (dose: 225.0 mg/kg/injection, schedule: Q04DX003 (ip), vehicle: Klucel (hydroxypropylcellulose) (HPC)) is 109 % of control.

In the case of `Cc1ccc(S(=O)(=O)NC(=O)C2C(=O)CC3(CCCCC3)CC2=O)cc1`, the T/C was 109 % of control under setting [13] and 118 % of control under setting [1].

For the compound `COC(OC)c1[nH]c(=S)[nH]c(=O)c1Cc1cccc(Cl)c1`, the T/C was 109 % of control (dose: 100.0 mg/kg/injection, schedule: Q01DX001 (ip), vehicle: Klucel (hydroxypropylcellulose) (HPC)); 122 % of control under setting [1]; 113 % of control under setting [2]; 104 % of control (dose: 200.0 mg/kg/injection, schedule: Q01DX001 (ip), vehicle: Klucel (hydroxypropylcellulose) (HPC)); 100 % of control under setting [3]; 104 % of control (dose: 400.0 mg/kg/injection, schedule: Q01DX001 (ip), vehicle: Klucel (hydroxypropylcellulose) (HPC)). Moreover, the T/C is, setting by setting: under setting [4], 100 % of control; under setting [5], 95 % of control.

On to `O=C(O)C(O)C(=O)O`, for which the T/C (dose: 100.0 mg/kg/injection, schedule: Q04DX003 (ip), vehicle: saline) was 95 % of control.

Consider `CCCCCCCCCCCCN1CCCC(O)C1` (configuration not stated), for which the T/C was 104 % of control under setting [8], 100 % of control under setting [10], 120 % of control under setting [11] and 90 % of control under setting [12].

`CCCCC[C@H](O)/C=C/[C@H]1[C@H](O)CC(=O)[C@@H]1C/C=C\CCCC(=O)O`: the T/C is 122 % of control (dose: 50.0 mg/kg/injection, schedule: Q04DX002 (ip), vehicle: Klucel (hydroxypropylcellulose) (HPC)); 105 % of control (dose: 100.0 mg/kg/injection, schedule: Q04DX002 (ip), vehicle: Klucel (hydroxypropylcellulose) (HPC)); 114 % of control (dose: 200.0 mg/kg/injection, schedule: Q04DX002 (ip), vehicle: Klucel (hydroxypropylcellulose) (HPC)); 114 % of control (dose: 400.0 mg/kg/injection, schedule: Q04DX002 (ip), vehicle: Klucel (hydroxypropylcellulose) (HPC)).
